Values joined by “and” are separate entries in the source; they are usually repeats but may differ in a detail not shown here. Equal entries are not always repeated. Structures can show the parent of a compound that is named as a salt. Where two headings read alike, the source gives them in different places.
How the values were obtained:
[1] = tested on: patients with moderate to severe facial erythema associated with rosacea; experiment: Facial dermal tolerability assessment; format: in vivo, human
Method: Facial dermal tolerability assessment included the investigator's assessments (dryness and scaling of the treatment area) and the patient's assessments (stinging/burning and pruritus [itching] of skin in the application area) as described below:
Facial dermal tolerability assessment were evaluated by investigators and patients on days 1 (pre-dose, hours 1, 2, 4, 6, 8, 10, and 12), 2 (predose), 14 (predose, hours 1, 2, 4, 6, 8, 10, and 12), 28 (pre-dose, hours 1, 2, 4, 6, 8, 10, and 12), 35, and 56. Investigator's assessments included dryness and scaling and patient's assessment included stinging/burning, and pruritus; each had 4-point scales: 0=none, 1=mild, 2=moderate, 3=severe.
The number and percent of patients with at least a 1 severity increase (worsening) from baseline for 1 or more visits was generated by treatment group for day 1, day 14, day 28, and from day 1 through day 28. Raw values were summarized using shift tables and frequency distributions by treatment group. In addition, analyses of raw values and change from baseline at post-baseline timepoints and visits were performed using descriptive statistics. Baseline was the pre-dose assessment on day 1.

[2] = Plasma oxymetazoline pharmacokinetics after dermal administration; format: in vivo; settings: human, topical or ocular, repeated dermal administration, once-daily or twice-daily, read-out: effective half-life (mean), range across groups
Method: Blood samples were drawn on days 1 and 28 at predose, 2, 4, 6, 8, 10, and 12 hours after the morning dose throughout the study. Additional trough samples were collected on days 2, 14, and 29. The final pharmacokinetic sample was collected on day 35 after all assessments were completed. Plasma was analyzed for oxymetazoline concentrations using a validated liquid chromatography-tandem mass spectrometry method with a lower limit of quantification of 10 pg/mL.
Noncompartmental analysis was performed to determine the maximum observed plasma concentration (Cmax), corresponding time to reach maximum observed plasma concentration (Tmax), area under the plasma concentration-time curve from time 0 to time t (AUC0-t), accumulation ratio (R0), and effective half-life (Teff) of oxymetazoline in plasma. These parameters were calculated, whenever possible. […]
At the selected timepoints, approximately 6 mL of blood was collected into prelabeled K2EDTA lavender top blood collection tubes and gently inverted at least 10 times to ensure adequate mixing of blood and anticoagulant. […] A minimum of 1.0 mL of the harvested plasma was transferred into 2 prelabeled cryovials and stored at −20° C. or below until analyzed. The samples were analyzed using a validated high performance liquid chromatography-tandem mass spectrometry (LC-MS/MS) method with a lower limit of quantitation (LLOQ) of 10 pg/mL. […]

[3] = tested on: patients with moderate to severe facial erythema associated with rosacea; format: in vivo; settings: for Discontinued: Adverse Event: mITT
Method: An adverse event could therefore be any unfavorable and unintended sign (including an abnormal laboratory finding), symptom, or disease temporally associated with the use of a medicinal (investigational) product, whether or not related to the medicinal (investigational) product. In addition, during the screening period, adverse events were assessed regardless of the administration of a pharmaceutical product.
A clinical determination was made of the intensity of an adverse event. The severity assessment for a clinical adverse event was completed using the following definitions as guidelines:
A determination was made of the relationship (if any) between an adverse event and the study drug or study procedure, as applicable. A causal relationship was present if a determination was made that there was a reasonable possibility that the adverse event may have been caused by the drug or study procedure.
Adverse events were coded using preferred terms and primary System Organ Class (SOC) from the Medical Dictionary for Regulatory Activities (MedDRA), version 15.1. Adverse events were collected both for the screening/baseline period (which were referred to as pretreatment adverse events [PTAEs]) and for the study period after treatment was initiated (which were referred to as postbaseline adverse events; ie, adverse events with start date from study day 1 through study exit). A treatment emergent adverse event (TEAE) was defined a postbaseline adverse event where there was no PTAE of the same MedDRA preferred term or the maximum severity during the postbaseline period was more severe than the maximal severity of any PTAE of the same MedDRA preferred term.
For each preferred term, the incidence of TEAEs was presented and summarized on a per-patient basis as follows: • by preferred term in descending order of incidence rate • by primary SOC in alphabetical order, and preferred term • by primary SOC in alphabetical order, preferred term, and severity (maximum severity)
The maximum severity of a TEAE experienced by a patient was determined by the most severe rating recorded on the eCRF for the patient's given TEAE. The incidence of TEAEs was provided for all TEAEs regardless of causality and for treatment-related TEAEs.

[4] = all oxymetazoline-treated patients

Compound: Cc1cc(C(C)(C)C)c(O)c(C)c1CC1=NCCN1 [Oxy, oxymetazoline hydrochloride]
- patients with worsening of stinging/burning at the application site ([1]; once-daily, day 1): 12.8%
- patients with worsening of stinging/burning at the application site ([1]; once-daily, day 14): 12.0%
- patients with worsening of stinging/burning at the application site ([1]; once-daily, day 28): 6.0%
- patients with worsening of stinging/burning at the application site ([1]; twice-daily, day 1): 10.4%
- patients with worsening of stinging/burning at the application site ([1]; twice-daily, day 14): 8.9%
- patients with worsening of stinging/burning at the application site ([1]; twice-daily, day 28): 1.5%
- half-life [2]: 18 to 28 h
- Discontinued: Adverse Event ([3]; BID): 6 (4.4) Number (%) of Patients
- Discontinued: Adverse Event ([3]; QD): 2 (1.5) Number (%) of Patients
- patients who discontinued due to treatment-related application site adverse events ([3]; all Oxy-treated patients): Seven and 7 patients
- patients with application site acne (TEAE) ([3]; all Oxy-treated patients): 1.50%
- patients with contact dermatitis (TEAE) ([3]; all Oxy-treated patients): 2.6%
- patients with severe treatment-related application site events ([3]; all Oxy-treated patients, 7 severe events): 3 patients
- patients who discontinued the study due to TEAEs [3, 4]: 8 patients
- patients with headache (TEAE) [3, 4]: 4.9%
- patients with treatment-related application site adverse events [3, 4]: 28 patients
- patients with TEAEs ([3]; once-daily dosing): 33.8%
- patients with adverse events during the posttreatment period ([3]; once-daily dosing): 8.3%
- patients with adverse events during the treatment period ([3]; once-daily dosing): 28.6%
- patients with treatment-related TEAEs ([3]; once-daily dosing): 9.8%
- patients with discontinuation from the study due to adverse events ([3]; once-daily group): 1.5%
- patients who discontinued the study ([3]; once-daily treatment groups): 3.0%
- patients with TEAEs ([3]; twice-daily dosing): 32.6%
- patients with adverse events during the posttreatment period ([3]; twice-daily dosing): 7.4%
- patients with adverse events during the treatment period ([3]; twice-daily dosing): 26.7%
- patients with treatment-related TEAEs ([3]; twice-daily dosing): 12.6%
- patients who discontinued the study due to adverse events ([3]; twice-daily group): 4.4%
- patients who discontinued the study ([3]; twice-daily treatment groups): 6.7%

— US9974773B2, “Stabilized oxymetazoline formulations and their uses” (Allergan, Inc., priority 2014, dated 2018)
